Test results published in ChEMBL document CHEMBL5338790, “Discovery of Subcellular-Targeted Aza-BODIPY Photosensitizers for Efficient Photodynamic Antitumor Therapy” (J Med Chem, 2023).

Assays:
[1] = Toxicity in Balb/C nu/nu mouse xenografted with human HeLa cells assessed as change in heart histology at 2.5 umol/kg, iv with photo-irradiation at 30 J/cm2 after 1 hr of compound administration measured after 24 days by H and E staining based analysis; assay type: organism-based; settings: in vivo, 576 h, dose 2.5 µmol/kg, time 24 day
[2] = Cytotoxicity against human HeLa cells assessed as inhibition of cell viability under dark condition incubated for 27 hrs by CCK8 assay; assay type: toxicity, cell-based
[3] = test system: HeLa; test: Photodynamic cytotoxicity against human HeLa cells assessed as inhibition of cell viability incubated for 3 hrs followed by photo-irradiation at 54 J/cm2 measured after 24 hrs by CCK8 assay; assay type: functional, cell-based; settings: light or radiation study
[4] = Cytotoxicity against human HepG2 cells assessed as inhibition of cell viability under dark condition incubated for 27 hrs by CCK8 assay; assay type: toxicity, cell-based
[5] = Cytotoxicity against mouse B16-F10 cells assessed as inhibition of cell viability under dark condition incubated for 27 hrs by CCK8 assay; assay type: toxicity, cell-based
[6] = test system: B16-F10; test: Photodynamic cytotoxicity against mouse B16-F10 cells assessed as inhibition of cell viability incubated for 3 hrs followed by photo-irradiation at 54 J/cm2 measured after 24 hrs by CCK8 assay; assay type: functional, cell-based; settings: B16-F10, light or radiation study
[7] = Cytotoxicity against HUVEC cells assessed as inhibition of cell viability under dark condition incubated for 27 hrs by CCK8 assay; assay type: toxicity, cell-based; settings: human
[8] = Drug localization in endoplasmic reticulum of human HeLa cells at 5 uM incubated for 30 mins by ER-Tracker Green dye based confocal scanning microscopic analysis; assay type: ADME; settings: 0.5 h
[9] = test system: HeLa; test: Induction of apoptosis in human HeLa cells assessed as early apoptotic cells at 100 nM incubated for 3 hrs by Annexin V-FITC/PI staining based flow cytometry relative to control; assay type: toxicity, cell-based; settings: 0.1 µM
[10] = test system: HeLa; test: Induction of apoptosis in human HeLa cells assessed as viable cells at 100 nM incubated for 3 hrs by Annexin V-FITC/PI staining based flow cytometry relative to control; assay type: toxicity, cell-based; settings: read-out: Activity
[11] = test system: HeLa; test: Induction of apoptosis in human HeLa cells assessed as late apoptotic cells at 100 nM incubated for 3 hrs by Annexin V-FITC/PI staining based flow cytometry relative to control; assay type: toxicity, cell-based; settings: 0.1 µM
[12] = test system: HeLa; test: Induction of apoptosis in human HeLa cells assessed as viable cells at 12.5 nM incubated for 3 hrs with photo-irradiation at 54 J/cm2 by Annexin V-FITC/PI staining based flow cytometry relative to control; assay type: functional; settings: light or radiation study, read-out: Activity
[13] = test system: HeLa; test: Induction of apoptosis in human HeLa cells assessed as late apoptotic cells at 12.5 nM incubated for 3 hrs with photo-irradiation at 54 J/cm2 by Annexin V-FITC/PI staining based flow cytometry relative to control; assay type: functional
[14] = test system: HeLa; test: Induction of apoptosis in human HeLa cells assessed as early apoptotic cells at 25 nM incubated for 3 hrs with photo-irradiation at 54 J/cm2 by Annexin V-FITC/PI staining based flow cytometry relative to control; assay type: functional
[15] = test system: HeLa; test: Induction of apoptosis in human HeLa cells assessed as viable cells at 50 nM incubated for 3 hrs with photo-irradiation at 54 J/cm2 by Annexin V-FITC/PI staining based flow cytometry relative to control; assay type: functional; settings: light or radiation study, read-out: Activity
[16] = test system: HeLa; test: Induction of apoptosis in human HeLa cells assessed as late apoptotic cells at 50 nM incubated for 3 hrs with photo-irradiation at 54 J/cm2 by Annexin V-FITC/PI staining based flow cytometry relative to control; assay type: functional
[17] = test system: HeLa; test: Induction of apoptosis in human HeLa cells assessed as viable cells at 100 nM incubated for 3 hrs with photo-irradiation at 54 J/cm2 by Annexin V-FITC/PI staining based flow cytometry relative to control; assay type: functional; settings: light or radiation study, read-out: Activity
[18] = test system: HeLa; test: Induction of apoptosis in human HeLa cells assessed as increase in percentage of apoptosis/necrosis at 12.5 nM incubated for 3 hrs with photo-irradiation at 54 J/cm2 by Annexin V-FITC/PI staining based flow cytometry relative to control; assay type: functional
[19] = test system: HeLa; test: Induction of apoptosis in human HeLa cells assessed as increase in percentage of apoptosis/necrosis at 100 nM incubated for 3 hrs with photo-irradiation at 54 J/cm2 by Annexin V-FITC/PI staining based flow cytometry relative to control; assay type: functional
[20] = Drug distribution in Balb/C nu/nu mouse xenografted with human HeLa cells at 2.5 umol/kg, iv measured for 1 hr by IVIS imaging analysis; assay type: ADME, organism-based; settings: in vivo, dose 2.5 µmol/kg
[21] = Drug distribution in heart of Balb/C nu/nu mouse xenografted with human HeLa cells at 2.5 umol/kg, iv measured for 1 hr by IVIS imaging analysis; assay type: ADME, organism-based; settings: in vivo, dose 2.5 µmol/kg
[22] = Drug distribution in liver of Balb/C nu/nu mouse xenografted with human HeLa cells at 2.5 umol/kg, iv measured for 1 hr by IVIS imaging analysis; assay type: ADME, organism-based; settings: in vivo, dose 2.5 µmol/kg
[23] = Drug distribution in spleen of Balb/C nu/nu mouse xenografted with human HeLa cells at 2.5 umol/kg, iv measured for 1 hr by IVIS imaging analysis; assay type: ADME, organism-based; settings: in vivo, dose 2.5 µmol/kg
[24] = Drug distribution in lungs of Balb/C nu/nu mouse xenografted with human HeLa cells at 2.5 umol/kg, iv measured for 1 hr by IVIS imaging analysis; assay type: ADME, organism-based, Lung; settings: in vivo, dose 2.5 µmol/kg
[25] = Drug distribution in kidneys of Balb/C nu/nu mouse xenografted with human HeLa cells at 2.5 umol/kg, iv measured for 1 hr by IVIS imaging analysis; assay type: ADME, organism-based, Kidney; settings: in vivo, dose 2.5 µmol/kg
[26] = Drug distribution in tumor of Balb/C nu/nu mouse xenografted with human HeLa cells at 2.5 umol/kg, iv measured for 1 hr by IVIS imaging analysis; assay type: ADME, organism-based, Neoplasm; settings: in vivo, dose 2.5 µmol/kg
[27] = Drug distribution in heart of Balb/C nu/nu mouse xenografted with human HeLa cells at 2.5 umol/kg, iv measured for 24 hr by IVIS imaging analysis; assay type: ADME, organism-based; settings: in vivo, dose 2.5 µmol/kg
[28] = Drug distribution in spleen of Balb/C nu/nu mouse xenografted with human HeLa cells at 2.5 umol/kg, iv measured for 24 hr by IVIS imaging analysis; assay type: ADME, organism-based; settings: in vivo, dose 2.5 µmol/kg
[29] = Drug distribution in lungs of Balb/C nu/nu mouse xenografted with human HeLa cells at 2.5 umol/kg, iv measured for 24 hr by IVIS imaging analysis; assay type: ADME, organism-based, Lung; settings: in vivo, dose 2.5 µmol/kg
[30] = Drug distribution in kidneys of Balb/C nu/nu mouse xenografted with human HeLa cells at 2.5 umol/kg, iv measured for 24 hr by IVIS imaging analysis; assay type: ADME, organism-based, Kidney; settings: in vivo, dose 2.5 µmol/kg
[31] = Drug distribution in tumor of Balb/C nu/nu mouse xenografted with human HeLa cells at 2.5 umol/kg, iv measured for 24 hr by IVIS imaging analysis; assay type: ADME, organism-based, Neoplasm; settings: in vivo, dose 2.5 µmol/kg
[32] = Drug concentration in plasma of Balb/C nu/nu mouse xenografted with human HeLa cells at 2.5 umol/kg, iv measured after 24 hr by IVIS imaging analysis; assay type: ADME, organism-based; settings: in vivo, at 2.5 µmol/kg
[33] = Toxicity in Balb/C nu/nu mouse xenografted with human HeLa cells assessed as change in kidney histology at 2.5 umol/kg, iv with photo-irradiation at 30 J/cm2 after 1 hr of compound administration measured after 24 days by H and E staining based analysis; assay type: organism-based; settings: in vivo, 576 h, dose 2.5 µmol/kg, time 24 day

In the case of `COc1ccc2c(c1)CCc1c(-c3ccccc3)c3n(c1-2)[B-](F)(F)[N+]1=C(c2ccc(OCC(=O)NCCCN4CCOCC4)cc2)C(I)=C(c2ccccc2)C1=N3`, the Activity [1] is reported as “Non-Toxic”, the IC50 at 27 h [2] is reported as > 50 µM and the IC50 [3] is reported as 0.0021 µM. For the same compound, the IC50 at 27 h [4] was > 50 µM, the IC50 at 27 h [5] was > 50 µM and the IC50 [6] was 0.0072 µM. For the same compound, the IC50 at 27 h [7] was > 50 µM, the Drug uptake [8] was “Not Active” and the Activity [9] was 1.52%. It also gave a viability at 0.1 µM [10] of 91.7%, an Activity [11] of 5.79% and a viability at 0.0125 µM [12] of 88.1%. For the same compound, the Activity [13] was 5.57%, the Activity [14] was 36.45% and the viability at 0.05 µM [15] was 25.4%. For the same compound, the Activity [16] was 13.58%, the viability at 0.1 µM [17] was 9.73% and the Activity [18] was 10.9%. For the same compound, the Activity [19] was 64.6%, the Drug uptake [20] was “Active” and the Drug uptake [21] was “Active”. For the same compound, the Drug uptake [22] was “Active”, the Drug uptake [23] was “Active” and the Drug uptake [24] was “Active”. The Drug uptake [25] was “Active”, the Drug uptake [26] was “Active” and the Drug uptake [27] was “Not Active”. For the same compound, the Drug uptake [28] was “Not Active”, the Drug uptake [29] was “Not Active” and the Drug uptake [30] was “Not Active”. The Drug uptake [31] was “Not Active”, the Drug uptake [32] was 1% and the Activity [33] was “Non-Toxic”.
